pKd: −log10 of the molar value. Where a SMILES comes first, the peptide text is derived from it.
Assays:
TIM3 = target: T1, TIM3 (Mus musculus, UniProt Q8VIM0); experiment: SPR binding, TIM3 immobilized on chip; conditions: TIM3 50 μg/mL immobilized on nanogold sensor chip (EDC/NHS), flow rate 20 μL/min for about 7 min, read-out: affinity constant (KD)
T1 construct: purchased Chimerigen CHI-MF-210T3-C050
Protocol: Surface plasmon resonance (SPR) assay. The affinity identification between P26 and TIM3 was performed by immobilizing the TIM3 protein (50 μg/mL) on the surface of the nanogold sensor chip after the chip was activated by EDC/NHS. P26/Gal-9 competition assay was performed by immobilizing Gal-9 protein (25 µg/mL) on the sensor chip. Each sample was injected at a flow rate of 20 μL/min for about 7 min. KD, ka, and kd were calculated by Trace Drawer Evaluation (version 2.0).

MC38-hPD-L1 tumor = experiment: Tumor growth assay, MC38-hPD-L1 tumor-bearing B-hTIM-3 humanized mice; assay type: in vivo, mouse; conditions: P26 5 mg/kg/d, ATE 10 mg/kg/4d, n = 7
Protocol: C57BL/6 mice transgenic for B-hHAVCR2 (TIM3) (Biocytogen, Beijing, China) were used to evaluate the anti-tumor activity of P26 in vivo. After 1 week of adaptive feeding, 6-week-old female mice were inoculated with 0.1 mL of MC38-hPD-L1 cells (1 × 10^6 cells) by subcutaneous injection on the right scapula followed by the measurements of tumor volume and body weight. When the average tumor volume reached about 80 mm^3, mice were randomly divided into […] groups and administrated with different drugs: (A) PBS (control), (B) ATE (PD-L1 inhibitor Atezolizumab, 10 mg/kg/4d, as the positive group), (C) P26 (5 mg/kg/d), and (D) P26 (5 mg/kg/d) plus ATE (10 mg/kg/4d). The weight and tumor volume of the mice were measured twice a week. When the body weight loss (% BWL) was above 20%, the drug was discontinued, and then, ethically acceptable execution to mice was adopted upon the failure of weight loss recovery in 72 h. The weight and volume of tumors were then analyzed.

T1 sequence (Q8VIM0 20-193 limits assumed): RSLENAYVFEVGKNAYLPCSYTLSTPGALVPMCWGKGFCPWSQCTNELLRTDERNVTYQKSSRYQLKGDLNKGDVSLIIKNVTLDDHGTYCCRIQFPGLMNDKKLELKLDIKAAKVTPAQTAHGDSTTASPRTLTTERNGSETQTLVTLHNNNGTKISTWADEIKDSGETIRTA

| pKd (TIM3) | Compound | inhibition of MC38-hPD-L1 tumor growth vs solvent control (in words) (MC38-hPD-L1 tumor; tumor nodules on day 36, Fig. 4b, c) | tumor volume inhibition rate (MC38-hPD-L1 tumor; vs PBS control, start day 10, sacrificed day 36, Fig. 4d) [%] |
| --- | --- | --- | --- |
| 4.46 | CC[C@H](C)[C@H](NC(=O)[C@H](Cc1c[nH]cn1)NC(=O)[C@H](CCSC)NC(=O)[C@@H](NC(=O)[C@@H](NC(=O)[C@H](CC(C)C)NC(=O)[C@@H]1CCCN1C(=O)[C@@H](NC(=O)[C@H](CC(C)C)NC(=O)CN)[C@@H](C)CC)[C@@H](C)O)[C@@H](C)O)C(=O)NCC(=O)N[C@@H](CCCCN)C(=O)O [Peptide P26] (H-GLIPLTTMHIGK-OH) | – | – |
| – | ATE: PD-L1 inhibitor Atezolizumab, positive group | significantly inhibit the growth | 43.71 |
